Test results from patent US9738610B2, “Indazole derivatives and uses thereof” (Whitehead Institute for Biomedical Research, priority 2012, dated 2017).
In brackets after ≈: the same amount, converted by molar mass. Where two headings read alike, the source gives them in different places.

What was measured:
Plasma stability = details: % remaining in human plasma after a 5-hour incubation
PBS solubility = details: for solubility: aqueous buffer
Plasma protein binding = details: for fraction unbound: human, plasma; for Plasma Protein Binding: % bound in human plasma
C. albicans CaCi-2 [1] = assay: Secondary single-agent (no-fluconazole) activity assay; assay type: cell-based, Candida albicans; details: read-out: Target Potency (μM) Mean ± S.E.M CaCi-2^b IC50
Method: Clear, flat-bottom, black, 384-well plates were obtained from Corning. […] Pen/Strep was obtained from Gibco and prepared 100× in PBS. Fluconazole was obtained from Sigma and prepared in 2 mg/ml stock solution in PBS. Alamar Blue was obtained from Biosource International (Catalog No. DAL1100). Phosphate buffered solution (PBS) without calcium and magnesium was obtained from Cellgro.
Fungal inoculum was prepared as follows: 500 μl of yeast was inoculated from cryopreserved stock into a 250-ml shaker flask containing 30 ml growth medium and shaken overnight (16 hours) at 30° C. The culture was spun down, and the broth was poured off and washed with RPMI medium. The culture was spun down again, and the broth was poured off and resuspended in RPMI medium. The OD 600 of 1 ml of fungal culture in a cuvette was read using a standard optical density reader with growth medium as a background blank. The desired volume of fungal inoculum was diluted to starting OD of the fungal inoculum of 0.00015 A600.
Pen/Strep was added to the media to a final 1% concentration. A Combi NL (Thermo) was used to dispense 20 μl/well of assay media into all wells. Geldanamycin (1.5 mM) and fluconazole (0.2 mg/ml) were mixed for the positive control. Then, 80 nl of positive control solution was dispensed into the positive control wells using Thermo Combi nL for a final concentration of 3 μM geldanamycin and 8 μg/ml fluconazole. Then, 100 nl of test compound were pinned from the compound plates into assay plates using a CyBi-Well pin tool. A further 20 μl/well of RPMI synthetic defined medium culture was dispensed into 384-well, black plates. Fungal suspension (20 μl/well) was dispensed into all wells. The plates were incubated in a humidified (90% humidity) Liconic incubator at 37° C. without agitation for 48 hours. Alamar Blue Reagent was diluted 1:40 in Ca/Mg-free PBS. To all plates, 6.4 μl/well of the diluted Alamar Blue was added to the plates to a final dilution factor of 1:200. The plates were incubated for 2 hours at room temperature. Next, RFU of wells was read on a standard plate reader as a measure of relative fungal growth.

[2] = system: NIH-3T3 mammalian fibroblasts; assay: Counterscreen mammalian cell toxicity assay (fibroblast toxicity); assay type: cell-based, murine; details: for IC50: footnote: in the absence of fluconazole, read-out: Anti-target Potency (μM) Mean ± S.E.M Fibroblasts^b IC50
C. albicans CaCi-8 = assay: microbe, parasite or virus in culture; assay type: cell-based, Candida albicans
Method in brief: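 Hits tested for chemosensitization of the fluconazole-resistant CaCi-8 strain, for inherent antifungal activity without fluconazole, and for mammalian fibroblast toxicity by fluorescence reporter. Geldanamycin plus fluconazole served as positive control; a Saccharomyces assay assigned mechanism to Hsp90, calcineurin or other pathways.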

C. albicans CaCi-2 [3] = assay: CaCi-2 growth inhibition in the presence of 8 μg/ml fluconazole (Alamar Blue); assay type: cell-based, Candida albicans; details: in the presence of fluconazole; read-out: Target Potency (μM) Mean ± S.E.M CaCi-2^a IC50
Method: Fluconazole was obtained from Sequoia Research Products, Ltd. and prepared in a 2 mg/ml stock solution in phosphate buffered saline (PBS). […] PBS (Catalog No. 21-040-CV) without calcium and magnesium was obtained from Cellgro. Penicillin/Streptomycin (Pen/Strep) was obtained from Gibco and prepared 100× in PBS.
RPMI medium (1×) was prepared by dissolving 10.4 g powdered medium in 800 ml water. A buffer of 34.52 g MOPS was added. While stirring, pH was adjusted to 7.0 with 10 N NaOH. Next, 10 ml uridine solution and 50 ml glucose solution were added. The final volume was adjusted to 1000 ml, and filter sterilized.
The following yeast strains were used in this study: C. albicans CaCi-2. Fungal inoculum was prepared as follows: 500 μl of strain was inoculated from cryopreserved stock into a 250-ml shaker flask containing 30 ml growth medium and shaken overnight at 30° C. The optical density (OD 600) of 1 ml fungal culture in a cuvette was read using a standard optical density reader (Eppendorf BioPhotometer Plus), with growth medium as a background blank. The desired volume of fungal inoculums was diluted to desired volume of fungal inoculums according to the following formula: (1/OD measured)×(Desired Final Volume of Inoculum)×0.3=Volume of fungal culture (μl) to add to desired volume of growth medium. When added to media in wells, this yields a calculated starting OD of the fungal inoculum of 0.00015.
Fluconazole stock solution was added to the fungal inoculum to achieve 8 μg/ml. Pen/Strep was added to the media to a 1% concentration (v/v). A Thermo Combi nL was used to dispense 20 μl/well of assay media into all wells. Geldanamycin was dispensed in positive control wells using Thermo Combi nL for a final concentration of 3 μM. Then, 100 nl of test compound was pinned from compound plates into assay plates using a CyBi-Well pin tool. A further 20 μl/well of culture was dispensed into the assay media in all wells. The plates were incubated in a humidified (90% humidity) Liconic incubator at 37° C. without agitation for 48 hours. Alamar Blue was diluted 1:40 in Ca/Mg-free PBS. To all plates, […] of the diluted Alamar Blue was added to the plates to a final dilution factor of 1:200. The plates were incubated for an additional 2 hours. Then, Relative Fluorescence Intensity (RFU) of each well was read on standard plate reader as a measure of relative fungal growth.

yeast = biological target: T1, yeast (Saccharomyces cerevisiae, UniProt P00163); assay: IC50 values and selectivity of Table 10A (target yeast, anti-target human cytochrome); assay type: biochemical
T1 construct: Mitochondrial membranes were prepared from yeast; endogenous in cells; host or cells: yeast (mitochondrial membranes)
Method: All measurements were performed in triplicate.

[4] = Candida albicans, CACI2, in the absence of fluconazole
[5] = read-out: Target Potency (μM) Mean ± S.E.M CaCi-8^a IC50; in the presence of fluconazole
[6] = in the presence of fluconazole; read-out: Target Potency (μM) Mean ± S.E.M CaCi-8^a IC50

SMILES | Plasma Stability (Plasma stability) [%] | solubility (PBS solubility; PBS) [µM] | fraction unbound (Plasma protein binding) | IC50 (C. albicans CaCi-2 [1]; [4]) [µM] | IC50 ([2]; Mus musculus, NIH3T3) [µM] | IC50 (C. albicans CaCi-8; [5]) [µM] | PBS Solubility (PBS solubility; PBS) [µM] | Plasma Protein Binding (Plasma protein binding) [%] | IC50 (C. albicans CaCi-8; [6]) [µM] | further results
O=C(O)c1nn(Cc2ccc(Cl)cc2)c2ccccc12 [Compound 100493] | > 99 | 516 (≈ 148 µg/mL) | < 0.01 | > 26 | > 6 | > 26 | – | – | – | –
COC(=O)Cn1c(-c2ccccc2)nc2ccccc21 [Compound 4131200] | 46 | 438 (≈ 117 µg/mL) | 0.05 | > 26 | > 6 | > 26 | – | – | – | –
COc1ccc(-c2n[nH]c3ccccc23)cc1 [Compound 9855970] | 89 | < 1 | 0.02 | > 26 | > 6 | > 26 | – | – | – | –
CCOC(=O)c1nn(Cc2ccc(Cl)cc2)c2ccccc12 [Compound 12312246] | 93 | – | < 0.01 | > 26 | > 6 | > 26 | – | – | – | solubility (PBS solubility): < 0.1 µM
CNC(=O)Cn1nc(-c2ccccc2)c2ccccc21 [Compound 13330955] | > 99 | – | – | – | – | – | < 18.5 | 93 | > 26 | IC50 (C. albicans CaCi-2 [1]; in the absence of fluconazole): > 26 µM
O=C(O)c1c2ccccc2nn1Cc1ccc(Cl)cc1 [Compound 14420592] | 96 | 503 (≈ 144 µg/mL) | < 0.01 | > 26 | > 6 | > 26 | – | – | – | –
CCCNC(=O)Cn1nc(-c2ccccc2)c2cc(Cl)ccc21 [Compound 20877322] | 97 | < 1 | < 0.01 | > 26 | > 6 | > 26 | – | – | – | –
O=C(Cn1nc(-c2ccccc2)c2cc(Cl)ccc21)N1CCOCC1 [Compound 20877381] | 99 | 8 (≈ 2.85 µg/mL) | 0.04 | > 26 | > 6 | > 26 | – | – | – | –
O=C(Cn1nc(-c2ccccc2)c2ccccc21)N1CCc2ccccc2C1 [Compound 20877557] | 97 | – | – | – | – | – | < 1.0 | > 99 | > 26 | IC50 (C. albicans CaCi-2 [1]; in the absence of fluconazole): > 26 µM
COC(=O)[C@@H](C)n1nc(-c2ccccc2)c2ccccc21.COC(=O)[C@H](C)n1nc(-c2ccccc2)c2ccccc21 [Compound 49835813] | 61 | – | – | – | – | – | < 1.0 | > 99 | 15.8 | IC50 (C. albicans CaCi-2 [3]): 6.56 ± 0.79 µM; IC50 (C. albicans CaCi-2 [1]; in the absence of fluconazole): > 26 µM
CCC(=O)Cn1nc(-c2ccccc2)c2ccccc21 [Compound 49835816] | 98 | – | – | – | – | – | < 1.0 | 99 | > 26 | IC50 (C. albicans CaCi-2 [1]): > 26 µM
COC(=O)Cn1nc(I)c2ccccc21 [Compound 49835832] | 1.3 | – | – | – | – | – | 143.5 | 98 | 18.8 | IC50 [2]: 0.53 µM
COC(=O)CCn1nc(-c2ccccc2)c2ccccc21 [Compound 49835835] | 74 | – | – | – | – | – | < 1.0 | > 99 | > 26 | IC50 (C. albicans CaCi-2 [1]; in the absence of fluconazole): > 26 µM
COC(=O)Cn1nc(-c2cncnc2)c2ccccc21 [Compound 49835858] | < 1.0 | 155 (≈ 41.5 µg/mL) | – | > 26 | > 6 | – | – | – | – | –
CN(C)C(=O)Cn1nc(-c2ccccc2)c2ccccc21 [Compound 49835882] | 98 | – | – | – | – | – | 325.5 | 98 | > 26 | IC50 (C. albicans CaCi-2 [1]): > 26 µM
COC(=O)Cn1nc(-c2cccc(F)c2)c2ccccc21 [Compound I-71] | < 1.0 | < 1 | 0.04 | > 26 | 12.9 | – | – | – | – | IC50 (yeast; target is yeast): 0.25 µM; Selectivity* (anti-target IC50)/(target IC50) (yeast; target yeast, anti-target human cytochrome): 80; ** CaCi-2 to anti-target fold selectivity ([2]; fibroblast IC50 over CaCi-2 IC50 with fluconazole): 9.1
